Assay results published in patent publication US20050085547A1, “Molecules for inducing differentiation of dendritic cells” (Council of Scientific & Industrial Research, priority 2003, published 2005).
Read-outs that look alike come from different tables or passages of the source.

Experiments:
osteoclast precursors = assay: In vitro osteoclastogenesis assay (M-CSF + RANKL, TRAP staining); assay type: cell-based, Balb/c mice; conditions: for % inhibition of osteoclast formation / Number of TRAP-positive multinuclear cells/well of 96 well plate (Mean ± SEM): 6 days; for Effect on RANKL-induced osteoclast differentiation / formation (in words): M-CSF and RANKL, TRAP-positive osteoclasts
Source text: For in vitro osteoclastogenesis bone marrow cells were isolated from 5- to 8-wk-old Balb/c mice. Mice were sacrificed by cervical dislocation and femora and tibiae were aseptically removed and dissected free of adherent soft tissues. The bone ends were cut, and the marrow cavity was flushed out with medium MEM from one end of the bone using a sterile 21-gauge needle. The bone marrow suspension was carefully agitated with a plastic Pasteur pipette to obtain a single-cell suspension. The cells were washed twice and resuspended (10^6 cells/ml) in αMEM containing 10% FBS. […] After 24 h, nonadherent cells were harvested and layered on a Ficoll-Hypaque gradient. Cells at the gradient interface were collected, washed and resuspended (5×10^5/ml) in αMEM containing 10% FBS. In this study, we called these stromal cell-free, M-CSF-dependent, nonadherent cells as osteoclast precursors. These osteoclast precursors were added to 96-well plates (100 μl/well) containing plastic coverslips. Each well received further 100 μl of medium containing M-CSF (30 ng/ml), RANKL (30 ng/ml) without or with various concentrations of purified compound. Cultures were fed every 2-3 days and after incubation for 6 days osteoclast formation was evaluated by tartrate-resistant acid phosphatase (TRAP) staining. The number of TRAP-positive multinucleated cells (MNCs) containing 3 or more nuclei was scored.
TRAP is preferentially expressed at high levels in osteoclast and is considered, especially in the mouse, to be an osteoclast marker. Cytochemical staining for TRAP is widely used for identifying the osteoclasts in vivo and in vitro. It is claimed to be specific for osteoclasts in bone. After incubation, cells on cover slips were washed in PBS, fixed in 10% formalin for 10 min and stained for acid phosphatase in the presence of 0.05 M sodium tartrate. The substrate used was napthol AS-BI phosphate. Only those cells that were strongly TRAP-positive (dark red) counted by light microscopy.

[1] = system: mouse bone marrow leukocyte precursors; assay: Differentiation of dendritic cells from bone marrow leukocyte precursors, flow cytometry of cell surface markers; assay type: cell-based, BALB/c mice
Procedure: (§1) The fine suspension obtained above was transferred into a 50 ml sterile centrifuge tube and centrifuged for 10 minutes at 1200 rpm. […] The pellets were washed using HBSS wash buffer and then centrifuged again for 10 minutes at 1200 rpm. This process was repeated for one more time. […] This suspension was then finally passed through a MACS (Magnetic Activated Cell Sorting) column to get essentially and predominately leukocyte precursors.
In order to evaluate the upregulation of various cell surface markers associated with Dendritic cells, flow cytometry on the cells stimulated with GM-CSF or the compound was carried out using fluorescent labeled antibodies to various molecules (CD11c, I-A^d, CD80, CD86, H2-D^d, CD54, CD40).
The hind limbs of the mouse were removed carefully and placed in a Petri dish with HBSS (Hanks Balanced Saline Solution) wash buffer. The tibias and femurs were cleared of all surrounding and attached tissues. This was followed by chipping the ends of bones. The bone marrow was flushed out by injecting HBSS solution into the bone with the help of a hypodermal syringe (No. 26 gauge). The bone marrow was finally made into a fine suspension by syringing in and out of the fluid several times using an 18 gauge syringe needle.

[2] = system: mouse bone marrow leukocyte precursors; assay: Viability of the stimulated BM precursor cultures; assay type: cell-based, BALB/c mice; set-up: Viability, % of Viable cells: reference not given here
Procedure: as §1

[3] = M-CSF + RANKL + compound 0.5 μg/ml
[4] = M-CSF + RANKL + compound 1.5 μg/ml
[5] = M-CSF + RANKL + compound 3.0 μg/ml
[6] = M-CSF + RANKL + compound 5.0 μg/ml
[7] = Table A, 15 ng/ml of GM-CSF or 50 micro gram per ml of the synthetic compound, 48 h
[8] = Table B (Examples 6-8), concentration not given

O=C([O-])CCC[C@H](NS(=O)(=O)[O-])C(=O)[O-].O=C([O-])CCC[C@H](NS(=O)(=O)[O-])C(=O)[O-].[Ca+2].[Ca+2].[Ca+2] [L-homoglutamic acid, N-sulphonic acid, calcium salt]
% inhibition of osteoclast formation (osteoclast precursors; [3]): 5.55% | Number of TRAP-positive multinuclear cells/well of 96 well plate (Mean ± SEM) (osteoclast precursors; [3]): 138.57 ± 7.95 cells/well | % inhibition of osteoclast formation (osteoclast precursors; [4]): 27.60% | Number of TRAP-positive multinuclear cells/well of 96 well plate (Mean ± SEM) (osteoclast precursors; [4]): 106.23 ± 10.47 cells/well | % inhibition of osteoclast formation (osteoclast precursors; [5]): 46.40% | Number of TRAP-positive multinuclear cells/well of 96 well plate (Mean ± SEM) (osteoclast precursors; [5]): 78.57 ± 13.57 cells/well | % inhibition of osteoclast formation (osteoclast precursors; [6]): 68.50% | Number of TRAP-positive multinuclear cells/well of 96 well plate (Mean ± SEM) (osteoclast precursors; [6]): 46.22 ± 10.00 cells/well

O=C([O-])CC[C@H](NS(=O)(=O)[O-])C(=O)[O-].O=C([O-])CC[C@H](NS(=O)(=O)[O-])C(=O)[O-].[Ca+2].[Ca+2].[Ca+2] [compound 1, L-glutamyl-N-sulphonic acid, Ca salt]
Induction of differentiation of dendritic cells from BM precursors (in words) [1]: Induces Differentiation of Dendritic Cells | Concentration of maximum up regulation of cell surface densities of CD11c, CD80, CD54 ([1]; incubation of BM leukocyte precursors with different concentrations): 200 mM | Induction of differentiation of dendritic cells from BM precursors (in words) ([1]; listed as the compound): induces the differentiation of DCs from BM precursors | Viability of the cultures at the end of the incubation period ([2]; 200 mM of the synthetic compound, 48 h (embodiment text)): more than 99% | Viability of the cultures at the end of the incubation period ([2]; 50 micro gram per ml of the synthetic compound, 48 h): > 99% | Viability, % of Viable cells [2, 7]: 150% | Effect on RANKL-induced osteoclast differentiation / formation (in words) (osteoclast precursors): dose dependent inhibition in the number of osteoclast cells generated

O=C(O)C[C@H](NS(=O)(=O)O)C(=O)O [example 3, L-aspartyl, N-sulfonic acid]
Effect on RANKL-induced osteoclast differentiation / formation (in words) (osteoclast precursors): significantly inhibited osteoclast formation

GM-CSF: Granulocyte Macrophage-Colony Stimulating Factor, growth factor conventionally used to generate DCs in vitro; comparison
Fold increase in Relative MFI over unstimulated control, surface marker CD11c [1, 7]: 5.0 fold | Fold increase in Relative MFI over unstimulated control, surface marker CD54 [1, 7]: 4.0 fold | Fold increase in Relative MFI over unstimulated control, surface marker CD80 [1, 7]: 3.3 fold | Fold increase in Relative MFI over unstimulated control, surface marker H-2D^d [1, 7]: 2.0 fold | Fold increase in Relative MFI over unstimulated control, surface marker CD11c [1, 8]: 5.0 fold | Fold increase in Relative MFI over unstimulated control, surface marker CD54 [1, 8]: 4.0 fold | Fold increase in Relative MFI over unstimulated control, surface marker CD80 [1, 8]: 3.3 fold | Fold increase in Relative MFI over unstimulated control, surface marker H-2D^d [1, 8]: 2.0 fold | Viability, % of Viable cells [2, 7]: 180% | Viability, % of Viable cells [2, 8]: 180%
